Laboratory results from patent US9346809B2 (LEO PHARMA A/S, priority 2009, dated 2016).
Read-outs that look alike come from different tables or passages of the source.

Key:
Type in all cases: biochemical
[1] = biological target: T1, JAK3 (catalytic domain, His-tag) (Homo sapiens, UniProt P52333); assay: JAK kinase assay (HTRF, phosphorylation of TK substrate-biotin), JAK3; settings: ATP at Km (2 μM), read-out: JAK3 kinase inhibitory activity (EC50 indicator)
T1 construct: All four purified enzymes contain only the catalytic domain; His (N); purchased Carna Biosciences, Inc; host or cells: baculovirus expression system
T1 sequence (P52333 822-1111 limits assumed): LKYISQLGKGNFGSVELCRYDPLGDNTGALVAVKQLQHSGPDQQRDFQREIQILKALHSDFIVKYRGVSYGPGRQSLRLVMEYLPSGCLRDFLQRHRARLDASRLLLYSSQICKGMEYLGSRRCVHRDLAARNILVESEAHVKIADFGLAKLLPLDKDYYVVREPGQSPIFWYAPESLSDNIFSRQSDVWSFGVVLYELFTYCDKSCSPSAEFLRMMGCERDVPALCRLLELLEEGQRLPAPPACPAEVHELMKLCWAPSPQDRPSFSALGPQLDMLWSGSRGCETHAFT
Summary of the method: (§1)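 Compound was mixed with TK substrate-biotin (1 μM final), then kinase plus ATP at its Km was added and left 20-30 min at room temperature. Detection mix with EDTA, Streptavidin-XL665 and STK Ab Cryptate stopped the reaction; after overnight dark incubation, HTRF was read and EC50 derived.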

[2] = biological target: T2, JAK1 (aa 850-1154, catalytic domain, GST-tag) (Homo sapiens, UniProt P23458); assay: JAK kinase assay (HTRF, phosphorylation of TK substrate-biotin), JAK1; settings: ATP at Km (7 μM), read-out: JAK1 kinase inhibitory activity (EC50 indicator)
T2 construct: JAK1 (aa 850-1154) and TYK2 (aa 871-1187) are expressed with an N-terminally fused GST-tag; GST (N); purchased Carna Biosciences, Inc; host or cells: baculovirus expression system
T2 sequence (P23458 850-1154): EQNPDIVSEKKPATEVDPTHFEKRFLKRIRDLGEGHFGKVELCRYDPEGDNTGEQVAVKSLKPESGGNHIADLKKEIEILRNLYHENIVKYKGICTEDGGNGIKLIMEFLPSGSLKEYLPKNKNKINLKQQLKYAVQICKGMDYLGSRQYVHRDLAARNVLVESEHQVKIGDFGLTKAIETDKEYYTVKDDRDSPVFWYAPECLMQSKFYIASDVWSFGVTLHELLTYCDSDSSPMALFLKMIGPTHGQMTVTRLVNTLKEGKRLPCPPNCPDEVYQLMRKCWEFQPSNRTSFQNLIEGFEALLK
Summary of the method: as §1

[3] = biological target: T3, JAK2 (catalytic domain, His-tag) (Homo sapiens, UniProt O60674); assay: JAK kinase assay (HTRF, phosphorylation of TK substrate-biotin), JAK2; settings: ATP at Km (4 μM), read-out: JAK2 kinase inhibitory activity (EC50 indicator)
T3 construct: All four purified enzymes contain only the catalytic domain; His (N); purchased Carna Biosciences, Inc; host or cells: baculovirus expression system
T3 sequence (O60674 849-1124 limits assumed): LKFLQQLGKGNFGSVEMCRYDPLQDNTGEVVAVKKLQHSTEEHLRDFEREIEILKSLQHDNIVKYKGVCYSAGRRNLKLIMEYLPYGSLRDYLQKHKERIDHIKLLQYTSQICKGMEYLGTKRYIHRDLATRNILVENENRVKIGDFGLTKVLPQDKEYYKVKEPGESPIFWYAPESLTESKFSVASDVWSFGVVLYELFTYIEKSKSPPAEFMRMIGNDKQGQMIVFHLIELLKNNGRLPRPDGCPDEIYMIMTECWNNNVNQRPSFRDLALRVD
Summary of the method: as §1

[4] = biological target: T4, TYK2 (aa 871-1187, catalytic domain, GST-tag) (Homo sapiens, UniProt P29597); assay: JAK kinase assay (HTRF, phosphorylation of TK substrate-biotin), TYK2; settings: ATP at Km (13 μM), read-out: TYK2 kinase inhibitory activity (EC50 indicator)
T4 construct: JAK1 (aa 850-1154) and TYK2 (aa 871-1187) are expressed with an N-terminally fused GST-tag; GST (N); purchased Carna Biosciences, Inc; host or cells: baculovirus expression system
T4 sequence (P29597 871-1187): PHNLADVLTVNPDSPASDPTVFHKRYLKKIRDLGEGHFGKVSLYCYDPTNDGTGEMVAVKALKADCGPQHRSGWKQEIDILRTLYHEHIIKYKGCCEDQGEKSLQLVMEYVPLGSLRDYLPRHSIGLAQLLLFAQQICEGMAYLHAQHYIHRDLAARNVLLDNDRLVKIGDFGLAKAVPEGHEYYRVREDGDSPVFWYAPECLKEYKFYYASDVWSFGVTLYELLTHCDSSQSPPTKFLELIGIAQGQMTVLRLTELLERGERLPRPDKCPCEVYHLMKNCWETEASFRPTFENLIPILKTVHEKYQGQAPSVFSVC
Summary of the method: as §1

Row | SMILES | EC50 [1] [nM] | EC50 [2] [nM] | EC50 [3] [nM] | EC50 [4] [nM] | EC50 ([1]; HTRF assay) [nM] | EC50 ([2]; HTRF assay) [nM] | EC50 ([3]; HTRF assay) [nM] | EC50 ([4]; HTRF assay) [nM]
1 | N#CCC(=O)N1CCN(c2ncnc3[nH]ccc23)CC12CC2 [Example 54, 3-Oxo-3-[7-(7H-pyrrolo[2,3-d]pyrimidin-4-yl)-4,7-diazaspiro[2.5]oct-4-yl]propionitrile] | < 100 | < 100 | < 100 | > 500 | – | – | – | –
2 | CC(=O)N1CCCC1C(=O)N1CCN(c2ncnc3[nH]ccc23)CC12CC2 (centres unmarked) [Example 50, 1-{2-[7-(7H-Pyrrolo[2,3-d]pyrimidin-4-yl)-4,7-diazaspiro[2.5]octane-4-carbonyl]pyrrolidin-1-yl}ethanone] | > 500 | > 500 | > 500 | > 500 | – | – | – | –
3 | N#Cc1ccc2c(C(=O)N3CCN(c4ncnc5[nH]ccc45)CC34CC4)n[nH]c2c1 [Example 301, 3-[7-(7H-Pyrrolo[2,3-d]pyrimidin-4-yl)-4,7-diaza-spiro[2.5]octane-4-carbonyl]-1H-indazole-6-carbonitrile] | – | – | – | – | < 100 | < 100 | < 100 | 100 to 500
4 | Cc1cc(C(=O)N2CCN(c3ncnc4[nH]ccc34)CC23CC3)ccc1S(N)(=O)=O [Example 380, 2-Methyl-4-[7-(7H-pyrrolo[2,3-d]pyrimidin-4-yl)-4,7-diaza-spiro[2.5]octane-4-carbonyl]-benzenesulfonamide] | – | – | – | – | < 100 | < 100 | < 100 | < 100
5 | N#Cc1ccc(CC(=O)N2CCN(c3nc(N)nc4[nH]ccc34)CC23CC3)cc1 [Example 312, 4-{2-[7-(2-Amino-7H-pyrrolo[2,3-d]pyrimidin-4-yl)-4,7-diaza-spiro[2.5]oct-4-yl]-2-oxo-ethyl}-benzonitrile] | – | – | – | – | < 100 | < 100 | < 100 | 100 to 500
6 | COc1cnc2[nH]ccc2c1N1CCN(C(=O)Cc2ccc(C#N)cc2)C2(CC2)C1 [Example 295, 4-{2-[7-(5-Methoxy-1H-pyrrolo[2,3-b]pyridin-4-yl)-4,7-diaza-spiro[2.5]oct-4-yl]-2-oxo-ethyl}-benzonitrile] | – | – | – | – | < 100 | 100 to 500 | < 100 | > 500
7 | O=C(c1ccc(S(=O)(=O)NCCc2cccs2)cc1)N1CCN(c2ncnc3[nH]ccc23)CC12CC2 [Example 397, 4-[7-(7H-Pyrrolo[2,3-d]pyrimidin-4-yl)-4,7-diaza-spiro[2.5]octane-4-carbonyl]-N-(2-thiophen-2-yl-ethyl)-benzenesulfonamide] | – | – | – | – | 100 to 500 | < 100 | < 100 | 100 to 500
8 | NS(=O)(=O)c1ccc(C(=O)NCC(=O)N2CCN(c3ncnc4[nH]ccc34)CC23CC3)cc1 [Example 410, N-{2-Oxo-2-[7-(7H-pyrrolo[2,3-d]pyrimidin-4-yl)-4,7-diaza-spiro[2.5]oct-4-yl]-ethyl}-4-sulfamoyl-benzamide] | – | – | – | – | < 100 | < 100 | < 100 | < 100
9 | NS(=O)(=O)c1ccc(OCC(=O)N2CCN(c3ncnc4[nH]ccc34)CC23CC3)cc1 [Example 399, 4-{2-Oxo-2-[7-(7H-pyrrolo[2,3-d]pyrimidin-4-yl)-4,7-diaza-spiro[2.5]oct-4-yl]-ethoxy}-benzenesulfonamide] | – | – | – | – | < 100 | < 100 | < 100 | < 100
10 | O=C(Cc1ccncc1)N1[C@@H]2CC[C@@H]1CN(c1ncnc3[nH]ccc13)C2 [Example 171, 2-Pyridin-4-yl-1-[3-(7H-pyrrolo[2,3-d]pyrimidin-4-yl)-3,8-diaza-bicyclo[3.2.1]oct-8-yl]-ethanone] | > 500 | 100 to 500 | 100 to 500 | > 500 | – | – | – | –
11 | O=C(C1Cc2ccccc21)N1CCN(c2ncnc3[nH]ccc23)CC12CC2 (centres unmarked) [Example 125, Bicyclo[4.2.0]octa-1(6),2,4-trien-7-yl-[7-(7H-pyrrolo[2,3-d]pyrimidin-4-yl)-4,7-diaza-spiro[2.5]oct-4-yl]-methanone] | 100 to 500 | < 100 | < 100 | > 500 | – | – | – | –
12 | O=C(C1CCOC1)N1C2CCC1CN(c1ncnc3[nH]ccc13)C2 (centres unmarked) [Example 144, [3-(7H-Pyrrolo[2,3-d]pyrimidin-4-yl)-3,8-diaza-bicyclo[3.2.1]oct-8-yl]-(tetrahydro-furan-3-yl)-methanone] | > 500 | 100 to 500 | < 100 | > 500 | – | – | – | –
13 | O=C(c1cc2ccccc2s1)N1CCN(c2ccnc3[nH]ccc23)CC12CC2 [Example 82, Benzo[b]thiophen-2-yl-[7-(1H-pyrrolo[2,3-b]pyridin-4-yl)-4,7-diaza-spiro[2.5]oct-4-yl]-methanone] | > 500 | 100 to 500 | 100 to 500 | > 500 | – | – | – | –
14 | N#Cc1cccc(CS(=O)(=O)N2[C@@H]3CC[C@H]2CN(c2ncnc4[nH]ccc24)C3)c1 [Example 77, 3-[3-(7H-Pyrrolo[2,3-d]pyrimidin-4-yl)-3,8-diaza-bicyclo[3.2.1]octane-8-sulfonylmethyl]-benzonitrile] | 100 to 500 | < 100 | < 100 | > 500 | – | – | – | –
15 | N#CCC(=O)N1[C@@H]2CC[C@H]1CN(c1ncnc3[nH]ccc13)C2 [Example 53, 3-Oxo-3-[3-(7H-pyrrolo[2,3-d]pyrimidin-4-yl)-3,8-diazabicyclo[3.2.1]oct-8-yl]propionitrile] | 100 to 500 | 100 to 500 | 100 to 500 | > 500 | – | – | – | –
16 | COC(=O)c1cc2c(N3CCN(C(=O)Cc4ccc(F)cc4)C4(CC4)C3)ncnc2[nH]1 [Example 337, 4-{4-[2-(4-Fluoro-phenyl)-acetyl]-4,7-diaza-spiro[2.5]oct-7-yl}-7H-pyrrolo[2,3-d]pyrimidine-6-carboxylic acid methyl ester] | – | – | – | – | > 500 | > 500 | > 500 | > 500
17 | N#Cc1cccc(CS(=O)(=O)N2CCN(c3ncnc4[nH]ccc34)CC23CC3)c1 [Example 76, 3-[7-(7H-Pyrrolo[2,3-d]pyrimidin-4-yl)-4,7-diaza-spiro[2.5]octane-4-sulfonylmethyl]-benzonitrile] | 100 to 500 | < 100 | < 100 | > 500 | – | – | – | –
18 | N#Cc1ccc(C(=O)C(=O)N2C3CCC2CN(c2ncnc4[nH]ccc24)C3)cc1 [Example 128, 4-{2-Oxo-2-[3-(7H-pyrrolo[2,3-d]pyrimidin-4-yl)-3,8-diaza-bicyclo[3.2.1]oct-8-yl]-acetyl}-benzonitrile] | 100 to 500 | < 100 | < 100 | > 500 | – | – | – | –
19 | N#Cc1ccccc1C(=O)N1CCN(c2ccnc3[nH]ccc23)CC12CC2 [Example 235, 2-[7-(1H-Pyrrolo[2,3-b]pyridin-4-yl)-4,7-diaza-spiro[2.5]octane-4-carbonyl]-benzonitrile] | – | – | – | – | > 500 | 100 to 500 | < 100 | > 500
20 | CS(=O)(=O)c1ccc(C(=O)N2CCN(c3ncnc4[nH]ccc34)CC23CC3)cc1 [Example 364, (4-Methanesulfonyl-phenyl)-[7-(7H-pyrrolo[2,3-d]pyrimidin-4-yl)-4,7-diaza-spiro[2.5]oct-4-yl]-methanone] | – | – | – | – | 100 to 500 | < 100 | < 100 | 100 to 500
21 | Cc1ccc2[nH]c(C(=O)N3C4CCC3CN(c3ncnc5[nH]ccc35)C4)cc2c1 [Example 200, (5-Methyl-1H-indol-2-yl)-[3-(7H-pyrrolo[2,3-d]pyrimidin-4-yl)-3,8-diaza-bicyclo[3.2.1]oct-8-yl]-methanone] | 100 to 500 | < 100 | < 100 | > 500 | – | – | – | –
22 | COc1cnc2[nH]ccc2c1N1CCN(C(=O)c2cnccn2)C2(CC2)C1 [Example 285, [7-(5-Methoxy-1H-pyrrolo[2,3-b]pyridin-4-yl)-4,7-diaza-spiro[2.5]oct-4-yl]-pyrazin-2-yl-methanone] | – | – | – | – | 100 to 500 | > 500 | 100 to 500 | > 500
23 | COC(=O)c1cc2c(N3CCN(C(=O)Cc4ccc(C(F)(F)F)cc4)C4(CC4)C3)ncnc2[nH]1 [Example 338, 4-{4-[2-(4-Trifluoromethyl-phenyl)-acetyl]-4,7-diaza-spiro[2.5]oct-7-yl}-7H-pyrrolo[2,3-d]pyrimidine-6-carboxylic acid methyl ester] | – | – | – | – | > 500 | > 500 | > 500 | > 500
